From patent US12070457B2, “Substituted pyridines, pyridazines, pyrimidines, and 1,2,3-triazines as bruton's tyrosine kinase inhibitors” (HUTCHISON MEDIPHARMA LIMITED, priority 2020, dated 2024)
pIC50: −log10 of the molar value. Where two headings read alike, the source gives them in different places.

Key:
[1] = Study on in vivo pharmacokinetics in mice; set-up: species or system mouse; details: for concentration at 8 h / concentration at 24 h: male, ICR, mouse
Text: Example 6 Study on In Vivo Pharmacokinetics in Mice
Solutol HS15 was purchased from BASF, Germany, ethanol (anhydrous) was purchased from Nanjing Chemical Reagent Co., Ltd., physiological saline was purchased from Huayu (Wuxi) Pharmaceutical Co., Ltd., dimethyl sulfoxide (DMSO) and sodium carboxymethyl cellulose 800-1200 (CMC-Na) were purchased from Sinopharm Chemical Reagent Co., Ltd.
Preparation of ethanol/Solutol mixed solution (1:1, v/v): taking an appropriate amount of Solutol HS15 in a centrifuge tube and placing in a 37° C. water bath until dissolved, placing on the bench top to room temperature, taking 1 mL of Solutol in a centrifuge tube containing 1 mL of ethanol and mixing well to obtain the mixed solution.
Taking an appropriate amount of stock solution and placing in a blank centrifuge tube, adding an appropriate amount of ethanol/Solutol mixed solution prepared in advance, vortexing, then adding an appropriate amount of physiological saline, and mixing well until a transparent liquid.
3. Administration to Animals and Sample Collection:
Male ICR mice were purchased from Shanghai Lingchang Biotechnology Co., Ltd. 18 mice were randomly divided into intravenous administration group and intragastric administration group. The mice were fasted overnight before administration. The mice were withheld food but allowed to access water freely within 4 hours after administration, and allowed to freely access food and water after 4 hours. After anesthesia with isoflurane, blood was collected from the retroorbital venous plexus and placing in an centrifuge tube containing anticoagulant, and the centrifuge tube was stored in an box containing wet ice until the plasma was centrifuged.
The plasma samples were pre-treated and then analyzed by liquid chromatography-tandem mass spectrometry (LC-MS/MS), the instrument model was API5500. The analytical chromatographic column was Waters XSELECT HSS T3 C18 column (50×2.1 mm, 2.5 μm). In the mobile phases, deionized water containing 0.1% formic acid and 0.1% acetonitrile was used as the aqueous phase and acetonitrile containing 0.1% formic acid was used as the organic phase. The concentrations of the compound in the samples were determined as follows. Firstly, a standard curve was established, and the peak area ratios of the compound 19 to the internal standard in the standard curve were used as indexes. The theoretical concentrations of compound 19 and the peak area ratios of compound 19 to the internal standard were fitted with a quadratic regression equation to obtain the regression equation. The sample concentrations were calculated by measuring the peak area ratio of the compound of the test sample to the internal standard according to the standard curve.

BTK recombinant protein = BTK recombinant protein (Homo sapiens (Human), UniProt Q06187); assay: Determination of biochemical BTK (Z'-LYTE kinase assay)
Text: Example 2 Determination of Biochemical BTK
1. Reagents and Materials
• BTK recombinant protein: Invitrogen, Cat #PV3363; • Z′-LYTE® kinase test kit-tyrosine 1 peptide: Invitrogen, Cat #PV3190; • 384-well low-flange black flat-bottomed polystyrene NBS microplate, no lid, no sterilization: Corning, Cat #3575; • 96-well polystyrene conical-bottomed MicroWell™ plate, sealed with a lid: Thermo Scientific™ Nunc™, Cat #277143; • Envision multi-mode plate reader: PerkinElmer; • Mixmate® shaker: Eppendorf; • TS-2102 shaking incubator: TENSUC; 2. Methods
Z′-LYTE® biochemical assay employs a fluorescence resonance energy transfer (FRET)-based, coupled-enzyme format and is based on the differential sensitivity of phosphorylated and non-phosphorylated peptides to proteolytic cleavage. Both ends of the short peptide substrate are labeled with two fluorescent groups to form a FRET paired combination. In the primary reaction (the Kinase Reaction), the kinase transfers the γ-phosphate of ATP to a single […] residue on the short peptide substrate. In the secondary reaction (the development reaction), the non-phosphorylated short peptides were recognized and cleaved by a site-specific protease (the development reagent). Phosphorylated short peptides can resist such cleavage. Cleavage of short peptides can disrupt the donor (such as coumarin) and receptor fluorophores (fluorescein) on the short peptides, while the phosphorylated short peptides can maintain FRET. The calculation method of the ratio is as follows, and the ratio of the respective emission signals generated by the donor fluorophores emitted (after excitation at 400 nm) to the receptors is calculated. Emission signal ratio=emitted light by coumarin (445 nm)/emitted light by fluorescein (520 nm). If the FRET short peptide is phosphorylated (such as no kinase inhibitor), the emitted light ratio will remain in a lower level. If the FRET short peptide is non-phosphorylated (such as kinase inhibitor), the emitted light ratio will be in a higher level. In this way, the inhibitory effects of different compound inhibitors on BTK kinase activity would be distinguished.
The experiment were carried out according to the instructions of the Z′-LYTE® kinase test kit-tyrosine 1 peptide. Reagent preparation: 1.33× kinase buffer: 5× kinase buffer was diluted with water to 1.33× kinase buffer; an enzyme solution: the kinase was dissolved in 1.33× kinase buffer with the final working concentration being 3.32 nM; a short peptide solution: a short peptide stock solution (1 mM dissolved in DMSO) was dissolved in 1.33× kinase buffer with the final working concentration being 2 μM; Z′-LYTE Tyr01 phosphorylated short peptide solution, 0.6 μl of stock solution (1 mM dissolved in DMSO) was dissolved in 149.4 μl of 1.33× kinase buffer; an ATP solution: an ATP stock solution (10 mM aqueous solution) was dissolved in 1.33× kinase buffer with the final working concentration being 32 μM; a color-developing solution: color-developing solution B was dissolved in color-developing buffer with the final working concentration being 1× color-developing solution; 4× compound preparation: the compound was diluted in 3-fold gradient concentration to finally obtain 4% DMSO aqueous solution containing different concentrations of the compound, with the final working concentration being 3000, 1000, 333.33, 111.11, 37.04, 12.35, 4.12, 1.37 nM, 8 concentration points in total.
Specific steps of the experiment: In the experiment, there were three control groups, each with 8 replicate wells, which were C1 100% inhibition group (no ATP), C2 0% inhibition group (with ATP), and C3 100% phosphorylation group, respectively. 2.5 μl of serially diluted compound was added to each well of a 384-well plate, with double replicate wells, and 4% DMSO solution was added to wells C1, C2, and C3. […]

Chain of BTK recombinant protein (Q06187 whole entry): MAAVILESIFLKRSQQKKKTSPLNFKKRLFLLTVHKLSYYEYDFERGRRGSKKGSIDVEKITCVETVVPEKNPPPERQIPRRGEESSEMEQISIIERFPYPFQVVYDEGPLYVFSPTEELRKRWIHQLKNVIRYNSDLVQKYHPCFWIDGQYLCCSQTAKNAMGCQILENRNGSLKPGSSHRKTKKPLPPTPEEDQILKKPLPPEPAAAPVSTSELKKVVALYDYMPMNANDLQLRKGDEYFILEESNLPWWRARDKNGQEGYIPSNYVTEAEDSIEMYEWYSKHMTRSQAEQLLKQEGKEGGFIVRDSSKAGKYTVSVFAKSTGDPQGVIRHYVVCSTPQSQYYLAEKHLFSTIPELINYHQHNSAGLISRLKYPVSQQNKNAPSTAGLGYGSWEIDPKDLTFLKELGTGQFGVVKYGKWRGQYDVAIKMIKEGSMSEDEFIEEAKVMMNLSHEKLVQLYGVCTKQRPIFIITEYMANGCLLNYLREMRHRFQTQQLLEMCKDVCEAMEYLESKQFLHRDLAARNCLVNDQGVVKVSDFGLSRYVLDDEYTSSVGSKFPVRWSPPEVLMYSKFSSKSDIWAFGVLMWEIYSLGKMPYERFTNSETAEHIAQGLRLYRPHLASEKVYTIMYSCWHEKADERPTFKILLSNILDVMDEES

`C[C@H]1CN(C2COC2)CCN1c1ccc(Nc2cc(-c3ccnc(-n4ccn5c6c(cc5c4=O)CC(C)(C)C6)c3CO)cn(C)c2=O)nc1` [Compound 19] showed a concentration at 8 h ([1]; oral, mice, intragastric, 10 mg/kg, plasma at 8 h, read-out: C8 h) of 555 ng/mL, a concentration at 24 h ([1]; oral, mice, intragastric, 10 mg/kg, plasma at 24 h, read-out: C24 h) of 8.5 ng/mL and a concentration at 8 h ([1]; plasma, 10 mg/kg, oral administration in mice, 8 h, read-out: plasma concentration at 8 h) of 555 ng/mL. For the same compound, the concentration at 24 h ([1]; plasma, 10 mg/kg, oral administration in mice, 24 h, lower limit of quantification 2.4 ng/mL, read-out: plasma concentration at 24 h) was 8.5 ng/mL, the T1/2 ([1]; mice, intragastric, 10 mg/kg) was 2.7 h and the “plasma exposure (AUC0-∞) relative to reference GDC-0853” value ([1]; oral administration in mice) was “about 1.7 times”. For the same compound, the “plasma concentration at 8 h relative to GDC-0853” value ([1]; oral administration in mice, 8 h) was “about 3.9 folds” and the pIC50 (BTK recombinant protein) was 8.10.
